Reference: article PMC4305287, “Two Novel α7 Nicotinic Acetylcholine Receptor Ligands: In Vitro Properties and Their Efficacy in Collagen-Induced Arthritis in Mice” (PLoS ONE, 2015)

Experiments:
memory retention = tested on: memory retention; set-up: method as in PMID 19845675; settings: cited from earlier work
microglia = tested on: microglia; set-up: method as in PMID 22884467; settings: cited from earlier work
[1] = tested on: collagen-induced arthritis; set-up: method as in PMID 19116908; settings: cited from earlier work
[2] = tested on: T1, human α7 nAChR primed with PNU-120596; assay: electrophysiology of oocytes primed with PNU-120596; type: biochemical
T1 construct: expressed in transfected cells; host or cells: Xenopus laevis oocytes injected with cRNA; clones from Dr. Jon Lindstrom (α7) and Dr. Millet Treinin (RIC-3)
Method: Each oocyte received two initial control applications of 300 μM ACh, followed by the experimental drug application, and subsequent control application of 300 μM ACh, unless otherwise indicated. Responses to experimental drug applications were determined relative to the preceding ACh control responses in order to normalize the data, compensating for the varying levels of channel expression among the oocytes. Responses for α7 nAChR were calculated as net charge, since peak currents inaccurately report the agonist concentration dependence of α7 nAChR-mediated responses. […] Imax, n, and the EC50 were all unconstrained for the fitting procedures except in the case of the ACh concentration-response curves.

O=C(c1ccc(-c2cccc(C(F)(F)F)c2)o1)N1CCN2CCC1CC2 [NS-6740]
memory retention in a cognitive mouse model (memory retention): unable to improve memory retention | LPS-induced TNF release in microglia (microglia): reduce LPS-induced TNF release

O=C1NCC2(CN3CCC2CC3)O1 (centres unmarked) [AR-R17779]
effect on arthritis activity in CIA [1]: ameliorates arthritis activity

COc1cc(OC)c(NC(=O)Nc2cc(C)on2)cc1Cl [PNU-120596]
ion channel current during PNU-120596 application alone ([2]; 300 μM for 60 s): No ion channel current was stimulated

CCN1C[C@]2(COC(=O)c3ccccc3N3C(=O)C[C@H](C)C3=O)CC[C@H](OC)[C@@]34[C@@H]5C[C@H]6[C@H](OC)[C@@H]5[C@](O)(C[C@@H]6OC)[C@@](O)([C@@H](OC)[C@H]23)[C@@H]14 [MLA, methyllycaconitine]
ion channel response of PNU-120596 primed cells ([2]; after 60 s priming with 300 μM PNU-120596, PMP-311 1 μM, PMP-072 10 μM, MLA 10 μM): fail to activate the primed cells
